In patent US20230067910A1, “NOVEL COMPOUNDS FOR THE DIAGNOSIS, TREATMENT AND PREVENTION OF DISEASES ASSOCIATED WITH THE AGGREGATION OF ALPHA-SYNUCLEIN” (MODAG GMBH, priority 2019, published 2023):
Like-named read-outs stand apart in the source and are kept apart here.

Experiments:
[1] = target: T1, alpha-synuclein (sonicated fibrils) (Homo sapiens, UniProt P37840); assay: Modified competition binding assay, protocol 3b, reference ligand [3H]-compound 2; settings: Table 5, reference ligand [3H]-compound 2 (1 nM)
T1 construct: made in house; host or cells: E. coli
Description: (§1) Alpha-synuclein and tau46 were purified from E. coli according to established protocols (Nuscher B, et al., J. Biol. Chem., 2004; 279(21):21966-75), Aβ1-42 was obtained from rPeptide, Watkinsville, Ga., USA. Fibrils were prepared by aggregation of recombinant protein via constant agitation. In detail, 70 μM of alpha-synuclein mixed with 100 mM NaCl in 50 mM Tris, pH 7.0+0.02% NaN3 were incubated at 1,400 rpm, 37° C. for 96 h. 10 μM of tau46 were incubated with 0.03 mg/ml heparin in 50 mM Tris, pH=7.0 at 1,000 rpm, 37° C. for 72 h. Aβ1-42 was solved in 20 mM NaPi, pH=8.0+0.2 mM EDTA+0.02% NaN3 (Deeg A A, et al., Biochim. Biophys. Acta, 2015; 1850(9): 1884-90; Goedert M, et al. Nature, 1996; 383(6600): 550-3).
For competition binding experiments, a fixed concentration of recombinant αSYN fibrils (sonicated, 15 nM/well) was incubated with 1 nM [^3H]-compound 1 or [3H]-compound 2 and decreasing concentrations of a serial dilution of non-labeled competitor (serial dilution 1:4 or 1:3.5 or 1:3 providing the concentration ranges of non-labeled competitor 1 μM-[…] 1 μM-4 nM or 1 μM-[…], respectively) in 30 mM Tris-HCl, 10% ethanol, 0.05% Tween20, pH 7.4 in a total volume of 200 μL/well. Plates were incubated for 4.5 hours at RT covered by removable sealing tape (PerkinElmer, Waltham, Mass., USA).
Filtration and readout were performed as described for saturation binding assays. [^3H]-labeled ligand binding [in CMP] was plotted against increasing competitor concentrations and data points were fitted using non-linear regression analysis to calculate the IC50 and Ki values (GraphPad Software, Inc., Version 7.03, La Jolla (Calif.), USA). In the competition binding assay with sonicated recombinant αSYN fibrils, the calculation of Ki values was done based on KD values of 0.6 nM and 0.2 nM for compound 1 and compound 2, respectively.
(§2) The fibril competition assay provides Ki values. Ki is a quantitative measure that represents the concentration of the non-radioactive tested compound (competitor ligand) required to replace 50% of a reference compound, in this case [H]-compound 1 (1 nM) or [H]-compound 2 (1 nM), which is bound to the target structures (1 nM), in our case recombinant alpha-synuclein and tau46 fibrils. This assay is suitable for a screening of non-radioactive ligands.

[2] = target: T2, alpha-synuclein (fibrils) (Homo sapiens, UniProt P37840); assay: Competition binding assay, protocol 3a, reference ligand [3H]-compound 1, alpha-synuclein fibrils; settings: reference ligand [3H]-compound 1 (1 nM)
T2 construct: made in house; host or cells: E. coli
Description: as §1
(§3) A fixed concentration of sonicated human recombinant αSYN (200 nM/well) or tau46 (208 nM/well) fibrils diluted in phosphate buffered saline (PBS) were incubated in low binding plates (96 well micro test plate, Ratiolab GmbH, Dreieich, Germany) together with 1 nM [^3H]-compound 1 and 1:4 serial dilutions of the cold compound of interest starting from 1 μM diluted in 50 mM Tris-base, 10% EtOH, 0.05% Tween20, pH 7.4. For the calculation of Ki values the KD value of compound 1 toward sonicated human recombinant αSYN fibrils was set to 3 nM.
(§4) Assay plates were incubated under agitation at 37° C. for 2 h covered by plastic foil (Resealable tape, PerkinElmer, Waltham, Mass., USA). Prior to harvesting, a filter (Printed filtermat B, PerkinElmer, Waltham, Mass., USA) was incubated with 5 mg/mL polyethylenimine (PEI, Poly(ethyleneimine) solution, Sigma Aldrich Chemie GmbH, Taufkirchen, Germany) at 4° C. for 30 min. After incubation, bound and free ligands were separated by vacuum filtration using a harvester (Filtermate harvester, PerkinElmer, Waltham, Mass., USA). The filter was washed three times with buffer cooled to 4° C. and subsequently dried in the microwave for 2 min at medium power. The filter was sealed in a plastic bag (Sample bag for MicroBeta®, PerkinElmer, Waltham, Mass., USA) together with added scintillator (BETAPLATE SCINT, PerkinElmer, Waltham, Mass., USA). Accumulation of tritium was counted in a liquid scintillation counter (Wallac MicroBeta® TriLux, 1450 LSC & Luminescence Counter, PerkinElmer, Waltham, Mass., USA) immediately. Radioactivity was plotted against the increasing tritium-labeled compound or cold compound concentrations. Data points were fitted using nonlinear regression analysis in GraphPad Prism (GraphPad Software, Inc., Version 7.03, La Jolla, Calif., USA).
as §2

[3] = tested on: H4 cells overexpressing full-length alpha-synuclein; assay: Cellular model of aggregated alpha-synuclein-dependent toxicity, full-length alpha-synuclein H4 cells; assay type: cell-based; settings: 10 μM compound, 100 μM FeCl3, 0.75% DMSO, 48 h; for inhibition at 10 µM: read-out: Change in fraction of condensed nuclei (rel. to DMSO control) [%]
Description: (§5) To identify potential therapeutically useful effects, compounds were tested in two cellular models of aggregated alpha-synuclein-dependent toxicity in H4 cells. These cellular models allow for the inducible overexpression of alpha-synuclein hemi-Venus fusion constructs (V1S+SV2) or full-length alpha-synuclein (the model is described in detail in: Bartels M, Weckbecker D, Kuhn P H, Ryazanov S, Leonov A, Griesinger C, Lichtenthaler S F, Bötzel K, Giese A: Iron-mediated aggregation and toxicity in a novel neuronal cell culture model with inducible alpha-synuclein expression, Sci. Rep. 2019 Jun. 24; 9(1):9100). Moreover, addition of DMSO and FeCl3 promotes the aggregation of alpha-synuclein which is associated with an increase in cytotoxicity. The cell culture assay uses these effects by determining the change in the number of cells and the change in the percentage of condensed nuclei, which is indicative of apoptosis, in order to obtain information on which compounds show the most promising effects and thus might be therapeutically useful.
(§6) In these experiments, cells were incubated with 100 μM FeCl3 and 0.75% DMSO in the presence of 10 μM anle138c as a positive control, compounds 1 to 19 (10 μM), or DMSO as a negative control. After 48 h, the cells were imaged with an OPERA high-throughput imaging system and analyzed using Acapella software (Perkin Elmer). […] A reduction in the fraction of condensed nuclei (in the absence of a strong reduction in cell number) is indicative of a beneficial therapeutic effect.

[4] = target: T3, tau46 (fibrils) (Homo sapiens, UniProt P10636); assay: Competition binding assay, protocol 3a, reference ligand [3H]-compound 1, tau46 fibrils; settings: Experiment B, reference ligand [3H]-compound 1 (1 nM)
T3 construct: made in house; host or cells: E. coli
T3 sequence (P10636 1-412 isoform P10636-7): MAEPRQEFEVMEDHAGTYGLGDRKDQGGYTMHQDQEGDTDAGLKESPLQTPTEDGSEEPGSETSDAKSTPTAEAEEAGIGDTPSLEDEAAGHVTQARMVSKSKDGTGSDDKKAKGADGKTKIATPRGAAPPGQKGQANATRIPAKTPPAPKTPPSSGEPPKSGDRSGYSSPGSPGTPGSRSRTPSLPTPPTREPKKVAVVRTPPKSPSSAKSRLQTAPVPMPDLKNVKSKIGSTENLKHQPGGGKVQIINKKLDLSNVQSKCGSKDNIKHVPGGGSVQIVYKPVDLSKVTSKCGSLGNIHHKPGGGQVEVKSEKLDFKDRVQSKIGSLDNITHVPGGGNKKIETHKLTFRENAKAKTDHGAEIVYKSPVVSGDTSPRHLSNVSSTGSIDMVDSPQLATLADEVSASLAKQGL
Description: as §1, §3, §4, §2

[5] = tested on: H4 cells overexpressing alpha-synuclein hemi-Venus fusion constructs (V1S+SV2); assay: Cellular model of aggregated alpha-synuclein-dependent toxicity, V1S+SV2 H4 cells; assay type: cell-based; settings: 10 μM compound, 100 μM FeCl3, 0.75% DMSO, 48 h; for inhibition at 10 µM: read-out: Change in fraction of condensed nuclei (rel. to DMSO control) [%]
Description: as §5, §6

[6] = target: T1, alpha-synuclein (sonicated fibrils); assay: Modified competition binding assay, protocol 3b, reference ligand [3H]-compound 1; settings: Table 4b, reference ligand [3H]-compound 1 (1 nM), read-out: Ki (nM) alpha-synuclein (sonicated fibrils)
Description: Fibrils were prepared by aggregation of recombinant protein via constant agitation. In detail, 70 μM of alpha-synuclein mixed with 100 mM NaCl in 50 mM Tris, pH 7.0+0.02% NaN3 were incubated at 1,400 rpm, 37° C. for 96 h. 10 μM of tau46 were incubated with 0.03 mg/ml heparin in 50 mM Tris, pH=7.0 at 1,000 rpm, 37° C. for 72 h.
Plates were incubated for 4.5 hours at RT covered by removable sealing tape (PerkinElmer, Waltham, Mass., USA).
Filtration and readout were performed as described for saturation binding assays.
The fibril competition assay provides Ki values. […] This assay is suitable for a screening of non-radioactive ligands.

[7] = target: T4, aggregated alpha-synuclein (Homo sapiens, UniProt P37840); assay: Saturation binding assay, protocol 2a, alpha-synuclein fibrils; settings: saturation assay protocol 2a, [3H]-labeled compound; read-out: KD [nM] for aggregated alpha-synuclein
T4 construct: made in house; host or cells: E. coli
Description: as §1
Sonicated αSYN (0.04 μM) or tau46 (0.4 μM) or Aβ1-42 (6 μM) fibrils diluted in PBS were incubated with decreasing concentrations of [^3H]-labeled compound (48 nM or 24 nM-[…]) in 50 mM Tris-base, 10% ethanol, 0.05% Tween20, pH 7.4. To determine non-specific binding, the respective unlabeled compound (400 nM) was added to a duplicate set of binding reactions.
as §4, with “2 h,” for “2 h”, “microwave oven” for “microwave”, “power. Melt-on scintillator sheets (MeltiLex™ B/HS, PerkinElmer, Waltham, Mass., USA) were molten into the filter using a heating plate set to 120° C. After solidifying at room temperature, the” for “power. The”, “MicroBeta®,” for “MicroBeta®, PerkinElmer, Waltham, Mass., USA) together with added scintillator (BETAPLATE SCINT,”
The fibril-binding saturation assay provides KD values. This assay is performed with directly radioactively labeled compounds (e.g. ^3H labeling). The saturation binding assays were performed using as target structures fibrillar aggregates produced from recombinant human alpha-synuclein, Aβ1-42, and tau46, respectively.

[8] = Experiment B, read-out: Ki (nM) alpha-synuclein (sonicated fibrils)
[9] = Experiment A, read-out: Ki (nM) alpha-synuclein (fibrils)

Structure (SMILES)	Ki [1] [nM]	Ki [2, 8] [nM]	Change in cell number (rel. to DMSO control) [%] [3] [%]	inhibition at 10 µM [3] [%]	Ki [4] [nM]	Change in cell number (rel. to DMSO control) [%] [5] [%]	inhibition at 10 µM [5] [%]	Ki [2, 9] [nM]	Ki [6] [nM]	Kd [7] [nM]
Brc1cc(-c2cc(-c3ccc(N4CCC4)cc3)n[nH]2)ccn1 [Compound 17, 4-{3-[4-(azetidin-1-yl)phenyl]-1H-pyrazol-5-yl}-2-bromopyridine]	0.8	2	−28.9	55	1	−8.2	38.3	–	–	–
Brc1cncc(-c2cc(-c3ccc4c(c3)OCO4)n[nH]2)c1 [Compound 10]	7.8	25	−35.3	60.2	> 100	−32.8	50.3	34	–	–
Brc1cc(-c2cc(-c3ccc4c(c3)OCO4)n[nH]2)ccn1 [Compound 9, 4-[3-(1,3-benzodioxol-5-yl)-1H-pyrazol-5-yl]-2-bromopyridine]	3.3	< 4	−35.3	23.8	28	−22.5	31.8	2	2.1	–
Brc1cccc(-c2cc(-c3ccc4c(c3)OCO4)n[nH]2)n1 [Compound 15, 2-[3-(1,3-benzodioxol-5-yl)-1H-pyrazol-5-yl]-6-bromopyridine]	6.6	–	−11.2	-20.3	–	−11.3	-23.1	–	6.7	–
CN(C)c1ccc(-c2cc(-c3ccnc(F)c3)[nH]n2)cc1 [Compound 3, 4-[5-(2-fluoropyridin-4-yl)-1H-pyrazol-3-yl]-N,N-dimethylaniline]	0.95	3	−34.8	79.1	4	−11.3	31.9	< 0.1	–	–
CN(C)c1ccc(-c2cc(-c3ccnc(Br)c3)[nH]n2)cn1 [Compound 4, 5-[5-(2-bromopyridin-4-yl)-1H-pyrazol-3-yl]-N,N-dimethylpyridin-2-amine]	0.7	13	−48.6	30.1	31	−36.9	-33.7	8	–	–
Cn1nc(-c2ccc3c(c2)OCO3)cc1-c1ccnc(Br)c1 [Compound 18, 4-[3-(1,3-benzodioxol-5-yl)-1-methyl-1H-pyrazol-5-yl]-2-bromopyridine]	–	–	−21.3	18.2	–	−11.8	19.9	–	–	126
Brc1ccnc(-c2cc(-c3ccc4c(c3)OCO4)n[nH]2)c1 [Compound 16, 2-[3-(1,3-benzodioxol-5-yl)-1H-pyrazol-5-yl]-4-bromopyridine]	4.7	–	−47.1	-0.8	–	−40.2	-56.8	–	5.2	–
